Results from article PMC11014985, “TCTP regulates genotoxic stress and tumorigenicity via intercellular vesicular signaling” (EMBO Reports, 2024).

Biological target: T1, recombinant human TCTP (Homo sapiens, UniProt P13693)
T1 construct: gene TPT1; recombinant; RED-NHS fluorescently labelled for MST
T1 sequence (P13693 1-172): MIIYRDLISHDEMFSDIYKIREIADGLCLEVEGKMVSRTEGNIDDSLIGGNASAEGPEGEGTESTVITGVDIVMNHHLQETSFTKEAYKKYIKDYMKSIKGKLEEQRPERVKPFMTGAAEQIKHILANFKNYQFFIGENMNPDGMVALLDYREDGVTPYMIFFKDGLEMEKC
Assay: microscale thermophoresis
Format: binding

Kd [µM]	Structure (SMILES)
15.4 ± 1.4	CN[C@H]1CC[C@@H](c2ccc(Cl)c(Cl)c2)c2ccccc21 [sertraline]
5.39 ± 2.1	CSc1ccc2c(c1)N(CCC1CCCCN1C)c1ccccc1S2 (centres unmarked) [thioridazine]
